Values joined by “and” are separate entries in the source; they are usually repeats but may differ in a detail not shown here. Identical values can stand only once. Like-named read-outs stand apart in the source and are kept apart here.
Experiments:
[1] = target: liver fatty acid binding protein (L-FABP); parameters: method as in Yang et al. 2020; settings: ref Yang et al. 2020; read-out: Kd (μM), L-FABP binding affinity; cited from earlier work
[2] = test system: zebrafish embryos
[3] = test system: zebrafish larvae; test: Bioconcentration factors (BCF) of PFAS in zebrafish larvae; settings: zebrafish larvae, 120 hpf, three replicates; for BCF 0.5µM: 0.5 µM exposure; for BCF 5µM: 5 µM exposure
Experimental: Zebrafish embryos were collected immediately after spawning, within 1 h, and subsequently transferred to 24-well plates with 1mL of facility water ( 0.036g sea salt, 0.15g sodium bicarbonate in 2L of reverse osmosis water). […] Three well replicates on the same plate were conducted for each concentration of individual chemical. […] Seven batches of experiments were performed to test all 74 PFAS. DMSO controls were incorporated in each batch of exposure experiments. Three replicates were performed for each treatment group, and 20 embryos were used for each replicate. […] For daily replenishment, 2.5mL of old exposure medium were replaced with freshly prepared medium every 24 h from 24 to 96 h post fertilization (hpf). Hatched or dead embryo numbers were recorded every 24 hpf, after which dead embryos were discarded from the growth media. Dead embryos or unhatched embryos were not used for PFAS measurement because the metabolism of PFAS might have been impacted. Zebrafish larvae collection occurred at 120 hpf. First, the larvae were anesthetized by cooling the plate in ice water (0–4°C) for ∼20 min . Then 8–15 larvae in each well were transferred into 1.5-mL tubes. Exposure media was carefully removed, and then the larvae were weighed (wet weight) after blotting excess water with a paper towel. […] Samples were stored at −80 °C until further chemical analysis was performed. Survival rate and hatching rate were calculated by summarizing all the documented data from the whole treatment duration. […] The exposure experiment of PFOSA was repeated using the same procedure as described above.
Each sample was spiked with 2μL of 0.2μg/mL mass-labeled PFAS mixture. Following this, 500μL of dichloromethane/methanol (2:1, vol/vol) was added to each sample for PFAS extraction. Larvae were then homogenized via ultrasonic probe, followed by 30 min of shaking and 30 min of sonication. Each sample was centrifuged at 14,000×g for 5 min, after which the supernatant was transferred to new tubes. Extraction was repeated once and the two supernatants were combined, evaporated under nitrogen flow, and reconstituted in 200μL of methanol for MS analysis.
Three microliters of each zebrafish extract was applied to a C18 column ( 1.5μm; 2.1mm×50mm; Thermo Scientific) and analyzed using a Vanquish ultra-HPLC system (Thermo Fisher Scientific) coupled to a Q Exactive high-resolution mass spectrometer (Thermo Fisher Scientific). The sampler and column compartments were maintained at 4°C and 40°C, respectively. The aqueous mobile phase solution (A) consisted of water, whereas the organic mobile phase solution (B) consisted of acetonitrile. […] MS data was acquired in full scan mode (100–1000 m/z, 70,000 mass resolution, 3×10^6 maximum ions collected per 100 ms), and tandem MS (MS/MS) data was recorded by all-ion fragmentation (AIF) mode. Negative and positive ion modes were carried out simultaneously at a 10-min method duration. […] An overview of the analyses conducted on the various PFAS is available in Table S2.
GraphPad Prism (version 7.0.4; GraphPad Software) and R studio (version 1.1.456; R Studio Inc.) software was used, and an ANOVA with Dunnett tests was employed to evaluate the statistical significance of the percentage hatched and mortality rate. Exponential regressions were used to determine the relationships between bioconcentration factor (BCF) and binding affinities ( Kd ) to L-FABP.

[4] = 5μM through 120 hpf, malformation rate

O=S(=O)([O-])C(F)(F)C(F)(F)C(F)(F)C(F)(F)C(F)(F)C(F)(F)C(F)(F)C(F)(F)F.[K+] [compound 6, Potassium perfluorooctanesulfonate]
Kd [1]: 8.1 µM
pericardial oedemata, Mean [2, 4]: 1.11%
spinal curvature, Mean [2, 4]: 2.22%
tail dysplasia, Mean [2, 4]: 1.11%
Mortality (%) ([2]; 5 µM, exposure through 120 hpf): 2.2%
BCF 0.5µM [3]: 288 ± 99 L/kg and 287.815 L/kg
BCF 5µM [3]: 82 ± 9.2 L/kg

O=C(O)C(F)(F)OC(F)(F)C(F)(F)OC(F)(F)C(=O)O [compound 7, Perfluoro-3,6-dioxaoctane-1,8-dioic acid]
pericardial oedemata, Mean [2, 4]: 2.22%
spinal curvature, Mean [2, 4]: 1.11%
tail dysplasia, Mean [2, 4]: 0.00%
Mortality (%) ([2]; 5 µM, exposure through 120 hpf): 1.1%
BCF 0.5µM [3]: NDb

O=S(=O)(O)CCC(F)(F)C(F)(F)C(F)(F)C(F)(F)F [compound 15, 4:2 Fluorotelomer sulfonic acid]
Mortality (%) ([2]; in vivo): 0
pericardial oedemata, Mean ([2]; in vivo): 1.11%
spinal curvature, Mean ([2]; in vivo): 0.00%
tail dysplasia, Mean ([2]; in vivo): 0.00%
BCF 0.5µM [3]: 5.68 L/kg
BCF 5µM [3]: 2.5 ± 0.13 L/kg

O=C(O)C(F)(F)C(F)(F)C(F)(F)C(F)(F)C(F)(F)C(F)(F)C(F)(F)C(F)(F)F [compound 17, Perfluorononanoic acid]
Kd [1]: 4.3 µM
pericardial oedemata, Mean [2, 4]: 0.00%
spinal curvature, Mean [2, 4]: 0.00%
tail dysplasia, Mean [2, 4]: 0.00%
Mortality (%) ([2]; 5 µM, exposure through 120 hpf): 1.1%
BCF 0.5µM [3]: 152.811 L/kg
BCF 5µM [3]: 73 ± 6.9 L/kg

O=C(O)C(F)(F)C(F)(F)C(F)(F)C(F)(F)C(F)(F)F [compound 20, Perfluorohexanoic acid]
Kd [1]: 141 µM
pericardial oedemata, Mean [2, 4]: 0.00%
spinal curvature, Mean [2, 4]: 0.00%
tail dysplasia, Mean [2, 4]: 0.00%
Mortality (%) ([2]; 5 µM, exposure through 120 hpf): 0%
BCF 0.5µM [3]: 6.647 L/kg
BCF 5µM [3]: 3.5 ± 0.64 L/kg

O=C(O)C=C(C(F)(F)F)C(F)(F)F [compound 23, 3,3-Bis(trifluoromethyl)-2-propenoic acid]
pericardial oedemata, Mean [2, 4]: 1.11%
spinal curvature, Mean [2, 4]: 3.33%
tail dysplasia, Mean [2, 4]: 3.33%
Mortality (%) ([2]; 5 µM, exposure through 120 hpf): 2.2%
BCF 0.5µM [3]: 1.831 L/kg
BCF 5µM [3]: 0.69 ± 0.29 L/kg

CCNS(=O)(=O)C(F)(F)C(F)(F)C(F)(F)C(F)(F)C(F)(F)C(F)(F)C(F)(F)C(F)(F)F [compound 24, N-Ethylperfluorooctanesulfonamide]
pericardial oedemata, Mean [2, 4]: 1.11%
spinal curvature, Mean [2, 4]: 1.11%
tail dysplasia, Mean [2, 4]: 1.11%
Lethal effects on zebrafish larvae ([2]; 5μM, 5 d): did not cause significant lethal effects
Mortality (%) ([2]; 5 µM, exposure through 120 hpf): 3.3%
BCF 0.5µM [3]: 28.4424 L/kg
BCF 5µM [3]: 24 ± 2.9 L/kg

OCC(F)(F)C(F)(F)C(F)(F)CO [compound 35, Hexafluoroamylene glycol]
pericardial oedemata, Mean [2, 4]: 1.11%
spinal curvature, Mean [2, 4]: 4.44%
tail dysplasia, Mean [2, 4]: 0.00%
Mortality (%) ([2]; 5 µM, exposure through 120 hpf): 0%
BCF 0.5µM [3]: 1.573 L/kg
BCF 5µM [3]: 1.1 ± 0.09 L/kg

FC(F)(F)C(F)(F)CNCC(F)(F)C(F)(F)F [compound 45, Bis(1H,1H-perfluoropropyl)amine]
pericardial oedemata, Mean [2, 4]: 1.11%
spinal curvature, Mean [2, 4]: 0.00%
tail dysplasia, Mean [2, 4]: 1.11%
Mortality (%) ([2]; 5 µM, exposure through 120 hpf): 2.2%

OCC(F)(F)C(F)(F)C(F)(F)C(F)F [compound 48, 1H,1H,5H-Perfluoropentanol]
Kd [1]: 916 µM
pericardial oedemata, Mean [2, 4]: 4.44%
spinal curvature, Mean [2, 4]: 6.67%
tail dysplasia, Mean [2, 4]: 1.11%
Mortality (%) ([2]; 5 µM, exposure through 120 hpf): 1.1%

OCC(F)(F)C(F)(F)C(F)(F)C(F)(F)C(F)(F)C(F)(F)C(F)(F)C(F)(F)C(F)(F)C(F)(F)C(F)(F)F [compound 50, 11:1 Fluorotelomer alcohol]
pericardial oedemata, Mean [2, 4]: 1.11%
spinal curvature, Mean [2, 4]: 0.00%
tail dysplasia, Mean [2, 4]: 1.11%
Mortality (%) ([2]; 5 µM, exposure through 120 hpf): 1.1%
BCF 5µM [3]: 1.7 ± 0.23 L/kg

O=C(F)C(F)(F)C(F)(F)C(F)(F)C(F)F [compound 51, 5H-Octafluoropentanoyl fluoride]
Mortality (%) ([2]; in vivo): 0
pericardial oedemata, Mean ([2]; in vivo): 1.11%
spinal curvature, Mean ([2]; in vivo): 0.00%
tail dysplasia, Mean ([2]; in vivo): 3.33%

FC(F)OCC(F)(F)C(F)(F)F [compound 52, Difluoromethyl 1H,1H-perfluoropropyl]
pericardial oedemata, Mean [2, 4]: 1.11%
spinal curvature, Mean [2, 4]: 0.00%
tail dysplasia, Mean [2, 4]: 0.00%
Mortality (%) ([2]; 5 µM, exposure through 120 hpf): 2.2%

FC(F)=C(F)OC(F)(F)C(F)(F)C(F)(F)F [compound 53, Heptafluoropropyl trifluorovinyl ether]
pericardial oedemata, Mean [2, 4]: 0.00%
spinal curvature, Mean [2, 4]: 1.11%
tail dysplasia, Mean [2, 4]: 0.00%
Mortality (%) ([2]; 5 µM, exposure through 120 hpf): 2.2%

CC(=O)C(F)(F)C(F)(F)F [compound 55, Methyl perfluoroethyl ketone]
pericardial oedemata, Mean [2, 4]: 1.11%
spinal curvature, Mean [2, 4]: 2.22%
tail dysplasia, Mean [2, 4]: 0.00%
Mortality (%) ([2]; 5 µM, exposure through 120 hpf): 2.2%

C=CC(F)(F)C(F)(F)C(F)(F)C(F)(F)F [compound 59, 1H,1H,2H-Perfluoro-1-hexene]
pericardial oedemata, Mean [2, 4]: 0.00%
spinal curvature, Mean [2, 4]: 1.11%
tail dysplasia, Mean [2, 4]: 0.00%
Mortality (%) ([2]; 5 µM, exposure through 120 hpf): 4.4%

CC(O)C(F)(F)C(F)(F)F (stereo not shown) [compound 62, 1-Pentafluoroethylethanol]
pericardial oedemata, Mean [2, 4]: 1.11%
spinal curvature, Mean [2, 4]: 0.00%
tail dysplasia, Mean [2, 4]: 1.11%
Mortality (%) ([2]; 5 µM, exposure through 120 hpf): 6.7%

O=C(F)C(F)(F)C(F)(F)C(F)(F)C(=O)F [compound 63, Perfluoroglutaryl difluoride]
pericardial oedemata, Mean [2, 4]: 0.00%
spinal curvature, Mean [2, 4]: 0.00%
tail dysplasia, Mean [2, 4]: 0.00%
Mortality (%) ([2]; 5 µM, exposure through 120 hpf): 5.6%

OCCC(F)(F)C(F)(F)C(F)(F)C(F)(F)C(F)(F)C(F)(F)C(F)(F)C(F)(F)F [compound 64, 8:2 Fluorotelomer alcohol]
pericardial oedemata, Mean [2, 4]: 0.00%
spinal curvature, Mean [2, 4]: 2.22%
tail dysplasia, Mean [2, 4]: 0.00%
Mortality (%) ([2]; 5 µM, exposure through 120 hpf): 3.3%

CCOC(F)(F)C(F)(F)C(F)(F)C(F)(F)F [compound 65, Ethyl perfluorobutyl ether]
pericardial oedemata, Mean [2, 4]: 0.00%
spinal curvature, Mean [2, 4]: 0.00%
tail dysplasia, Mean [2, 4]: 0.00%
Mortality (%) ([2]; 5 µM, exposure through 120 hpf): 0%

OC(O)(C(F)C(O)(O)C(F)(F)F)C(F)(F)F [compound 66, 3H-Perfluoro-2,2,4,4-tetrahydroxypentane]
pericardial oedemata, Mean [2, 4]: 0.00%
spinal curvature, Mean [2, 4]: 0.00%
tail dysplasia, Mean [2, 4]: 0.00%
Mortality (%) ([2]; 5 µM, exposure through 120 hpf): 1.1%

NCC(F)(F)C(F)(F)C(F)(F)C(F)(F)F [compound 68, 1H,1H-Perfluoropentylamine]
pericardial oedemata, Mean [2, 4]: 0.00%
spinal curvature, Mean [2, 4]: 0.00%
tail dysplasia, Mean [2, 4]: 0.00%
Mortality (%) ([2]; 5 µM, exposure through 120 hpf): 1.1%

FC(F)=C(F)C(F)(F)C(F)(F)C(F)(F)C(F)F [compound 69, 6H-Perfluorohex-1-ene]
pericardial oedemata, Mean [2, 4]: 0.00%
spinal curvature, Mean [2, 4]: 0.00%
tail dysplasia, Mean [2, 4]: 0.00%
Mortality (%) ([2]; 5 µM, exposure through 120 hpf): 0%

NC(C(F)(F)F)C(F)(F)F [compound 71, 2-Amino-2H-perfluoropropane]
pericardial oedemata, Mean [2, 4]: 0.00%
spinal curvature, Mean [2, 4]: 0.00%
tail dysplasia, Mean [2, 4]: 0.00%
Mortality (%) ([2]; 5 µM, exposure through 120 hpf): 3.3%

O=CC(F)(F)C(F)(F)C(F)(F)C(F)F [compound 72, 5H-Perfluoropentanal]
pericardial oedemata, Mean [2, 4]: 0.00%
spinal curvature, Mean [2, 4]: 0.00%
tail dysplasia, Mean [2, 4]: 0.00%
Mortality (%) ([2]; 5 µM, exposure through 120 hpf): 3.3%
